Reference: US9302967B2, “Substituted cathechols as inhibitors of IL-4 and IL-5 for the treatment of bronchial asthma” (Council of Scientific & Industrial Research, priority 2011, dated 2016)
Read-outs that look alike come from different tables or passages of the source.

What was measured:
IL-4 [1] = experiment: IL-4 levels in lung homogenates by ELISA, OVA mouse model; format: in vivo, BALB/c mice; details: for IL-4 levels in lung: 10 mg/kg vs OVA/OVA/VEH
Experimental: (§1) Mice were sensitized with 0.2 ml PBS containing 50 μg ovalbumin (OVA) (Sigma, USA) and 4 mg aluminum hydroxide in saline intraperitonially (i.p.) on days 0, 7 and 14 as shown in FIG. 1. Sham group mice were sensitized with only alum dissolved in PBS. From day 18 to 27, mice were exposed to aerosol of OVA (3%) inhalation 25 minutes daily in a Plexiglas chamber (20×20×10 cm^3). The aerosol was generated by a nebulizer (OMRON CX model) with an airflow rate of 9 L/minute. Sham group mice were challenged with PBS alone.
(§2) Compound 1 of formula I was dissolved in 50% ethanol. So 50% ethanol was used as a vehicle. Group I was alum sensitized, saline challenged and treated with vehicle (SHAM/SAL/VEH), group II was OVA sensitized, OVA challenged and treated with 50% ethanol as vehicle (OVA/OVA/VEH), group III, IV, V, VI were OVA sensitized, OVA challenged and treated with 0.05, 0.1, 5 and 10 mg/kg compound 1 of formula I. Drug was given in the volume of 10 μl orally twice per day. Confirmatory experiments were done with two concentrations of compound 1 of formula I (5 and 10 mg/kg twice a day), and these findings were compared with parallel group of mice which were OVA-sensitized, -OVA challenged and treated orally once a day with 0.75 mg/kg Dexamethasone (OVA/OVA/DEX).
OVA-specific IgE levels in sera were measured by enzyme linked immunosorbent assay (ELISA) as described previously with little modification (Inflam. Res. 2003, 52, 101-106). Absorbance values at 450 nm were converted to arbitrary values by multiplying with 100. IL-4 levels in lung homogenates were measured by ELISA method as per manufacturer's instructions (BD Pharmingen, USA). Lung homogenates were prepared by homogenizing the lung tissue (approximately 100 mg) with 1 ml PBS followed by centrifugation at 10000 g for 30 min at 4° C. Results were expressed in pg/50 μg protein. Protein estimation was done by BCA method.

IL-4 [2] = experiment: PHA-stimulated human PBMC, IL-4 in supernatant by Cytometric Bead Array; format: cell-based; details: PHA 10 μg/ml, read-out: IC50 inhibitory activity, stimulation-induced IL-4
Experimental: (§3) Normal human peripheral blood mononuclear cells (PBMC) were stimulated with phytohemagglutinin (PHA) 10 μg/ml in the presence and absence of varying concentrations of compounds of formula I and II. Culture supernatants were harvested and IIL-4 and IL-5 cytokines were quantitated by Cytometric Bead Array (CBA™) kit (Becton Dickinson, USA) following manufacturers instructions using a Flow Cytometer (BD LSR, Becton Dickinson) and CBA™ analysis software (Becton Dickinson).

[3] = mouse, in vivo
Experimental: (§4) Earlier, LD50 of ICB 14 C6 was derived from in vitro cytotoxicity assay by NRUmethod in 3T3 cells. […] For 90d sub-chronic toxicity study the highest dose selected was one-fourth of the limit dose. Four different doses of ICB14 C6 (47, 23, 12 and 0 [vehicle] mg/kg body weight) were prepared in ground nut oil daily for 5 days a week for 90d.
Compound 1 of formula I was administered by oral gavage in water using blunt ended steel canula.
On each working day, all mice were inspected and observations recorded. All the mice were weighed weekly.
From the day of administering the drug, 30 min cage side observation of the animals were performed every day (5 days a week) till the day of sacrifice. No signs and symptoms of restlessness, perinasal wetness and rapid rate of respiration were observed post administration. […] On the 12th week we found the mouse in a shrunken state as it was kept in the deep freezer.

[4] = 14 d acute oral toxicity: observations, body weight, organ weight, necropsy; format: in vivo, mice
Experimental: 14 d acute oral toxicity of compound 1 of formula I was performed. Three doses were selected: 47, 23, 12 and 0 mg/kg bw (Vehicle control) of compound 1 of formula I was administered by single oral gavage using blunt ended steel canula.

COX-1 = COX-1 (Homo sapiens, UniProt P23219); details: cited from earlier work
NF-κB pathway = details: lipopolysaccharide (LPS)-induced macrophages; cited from earlier work
IL-5 = experiment: PHA-stimulated human PBMC, IL-5 in supernatant by Cytometric Bead Array; format: cell-based; details: PHA 10 μg/ml, read-out: IC50 inhibitory activity, stimulation-induced IL-5
Experimental: as §3

3T3 cells = experiment: In vitro cytotoxicity by NRU method, predicted acute oral LD50; format: cell-based; details: derived from in vitro cytotoxicity
Experimental: as §4

[5] = system: OVA sensitized, OVA challenged mice; experiment: Airway hyperresponsiveness to methacholine (whole-body plethysmography), OVA mouse model of asthma; format: in vivo, BALB/c mice; details: for AHR to Mch / lung function compared with dexamethasone: 10 mg/kg orally twice a day, DEX 0.75 mg/kg once a day; for MCh PC200 (AHR to methacholine): 0.05, 0.1, 5 and 10 mg/kg orally twice per day
Experimental: BALB/c mice (6-8 wks old, 18-22 grams) were obtained from IICB Kolkata and VPCI, Delhi. Ethical clearance has been obtained from Institutional Ethical Committee. Mice were acclimatized for at least one week under the laboratory conditions (25±2° C., 60% humidity) before starting the experiments. After one week, baseline Penh (enhanced pause) was measured in Buxco unrestrained single chamber plethysmography (WBP, Buxco, Troy, N.Y.).
as §1, §2
Airway responsiveness was measured by barometric plethysmography using whole-body plethysmography (WBP; Buxco, Troy, N.Y.) 12 hours after last saline or ovalbumin challenge. At the time of measurement the animals were awake and breathing spontaneously. Enhanced pause (Penh) to methacholine as measured using barometric plethysmography is a valid indicator of bronchoconstriction in mice and can be used to measure AHR (Am J Respir Crit Care Med 1997, 156, 766-775). Baseline Penh was taken initially, and then PBS followed by increasing concentrations (4-48 mg/ml) of methacholine was nebulized through an inlet of the main chamber for 3 min. Readings were taken and averaged for 5 minutes from the starting time of nebulisation. Airway responsiveness to MCh was evaluated by the concentration of MCh required to increase the Penh to twice the baseline value (MCh PC200).

lung inflammation = experiment: Histological analysis of lung inflammation (H&E), OVA mouse model; format: in vivo, BALB/c mice
Experimental: as §1, §2
The excised lung portion was fixed in 10% buffered formalin. […]

[6] = listed as compound of formula I

Chain of COX-1 (P23219 24-599): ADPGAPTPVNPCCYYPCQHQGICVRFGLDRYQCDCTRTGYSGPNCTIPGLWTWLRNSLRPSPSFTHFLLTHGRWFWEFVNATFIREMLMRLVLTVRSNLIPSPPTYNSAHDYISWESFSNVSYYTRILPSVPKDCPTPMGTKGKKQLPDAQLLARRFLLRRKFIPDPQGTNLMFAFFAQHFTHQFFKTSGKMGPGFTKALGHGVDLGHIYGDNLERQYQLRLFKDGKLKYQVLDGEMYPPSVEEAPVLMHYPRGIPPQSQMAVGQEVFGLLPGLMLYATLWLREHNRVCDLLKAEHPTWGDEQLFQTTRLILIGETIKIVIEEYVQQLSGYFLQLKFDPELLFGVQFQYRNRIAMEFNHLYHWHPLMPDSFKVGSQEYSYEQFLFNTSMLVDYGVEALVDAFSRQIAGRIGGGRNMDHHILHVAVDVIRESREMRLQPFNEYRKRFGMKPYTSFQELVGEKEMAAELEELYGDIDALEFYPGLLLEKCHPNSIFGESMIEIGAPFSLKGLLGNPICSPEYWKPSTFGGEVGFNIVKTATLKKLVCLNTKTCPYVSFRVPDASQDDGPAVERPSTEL

C=CCc1ccc(O)c(O)c1 [Compound 1, 4-allyl-benzene-1,2-diol]
reduction of lung IL-4 compared to DEX treated mice (IL-4 [1]; 10 mg/kg): approx. 65% | IL-4 levels in lung (IL-4 [1]): a decrease in the IL-4 levels | IL-4 levels in lung (IL-4 [1]; [6]): a significant reduction in the IL-4 levels | IC50 (IL-4 [2]): 5 µM | cage side observation [3]: All the animals appeared normal | feed and water consumption [3]: comparable to sham controls | necropsy findings in vital organs [3]: no gross or microscopic lesion | mortality ([3]; 47 mg/kg, 90 d): on the 11th weekend it died | acute oral (level) established from body weight, organ weight, necropsy, immunotoxicity, hematology, clinical chemistry, cage side observation ([4]; mice): 23 mg/kg | necropsy findings in vital organs ([4]; mouse, in vivo): no gross or microscopic lesion | clinical signs on day of administration ([4]; mouse, in vivo, po): transient symptoms of restlessness and rapid rate of respiration that persisted for 30 minutes post administration | feed and water consumption ([4]; mouse, in vivo, po): comparable to vehicle control group | morbidity and/or mortality ([4]; single oral 47, 23 and 12 mg/kg bw): did not result in any morbidity and/or mortality | COX-1 inhibition (COX-1): potent COX-1/COX-2 inhibitor | NF-κB pathway (NF-κB pathway): inhibited NF-κB pathway | IC50 (IL-5; Homo sapiens): 4.5 µM | IC50 (IL-5): 5 µM | predicted acute oral LD50 (3T3 cells): 168 mg/kg | in vivo acute oral LD50 (In vivo acute oral LD50): 268 mg/kg bw | AHR to Mch / lung function compared with dexamethasone [5]: able to improve lung function almost similar to the level of dexamethasone | AHR to Mch / lung function compared with dexamethasone [5, 6]: significantly reduced the AHR to Mch as effective as DEX | MCh PC200 (AHR to methacholine) [5]: increased in a dose dependent manner | MCh PC200 (AHR to methacholine) [5, 6]: effective at higher concentrations | lung inflammation (H&E) (lung inflammation; 5 mg/kg): mild reduction of inflammation | lung inflammation (H&E) (lung inflammation; 10 mg/kg): a significant reduction in both peribronchial and perivascular inflammation
